From BindingDB's records for doi:10.1016/j.bmcl.2012.05.078 (University of Milan, 2012)

Assay: Inhibition of Met-triggered cell scattering in HGF-stimulated MDCK cells preincubated for overnight before HGF challenge measured after 24 to 48 hrs

| IC50 | SMILES |
| --- | --- |
| 0.2 µM | O=C(Cc1cc(C(F)(F)F)cc(C(F)(F)F)c1)N[C@@H](Cc1ccccc1)C(=O)Nc1ccc(-c2cn3c(n2)sc2ccccc23)cc1 |
| 0.2 µM | O=C(Cc1cc(C(F)(F)F)cc(C(F)(F)F)c1)N[C@H](Cc1ccccc1)C(=O)Nc1ccc(-c2cn3c(n2)sc2ccccc23)cc1 |
| 0.6 µM | O=C(Cc1cc(C(F)(F)F)cc(C(F)(F)F)c1)NC(Cc1ccccc1)c1cn(-c2ccc(-c3cn4c(n3)sc3ccccc34)cc2)nn1 (centres undefined) |
| 0.2 µM | Cc1[nH]c(/C=C2\C(=O)Nc3ccc(S(=O)(=O)N(C)c4cccc(Cl)c4)cc32)c(C)c1C(=O)N1CCN(C)CC1 [(3Z)-N-(3-CHLOROPHENYL)-3-({3,5-DIMETHYL-4-[(4-METHYLPIPERAZIN-1-YL)CARBONYL]-1H-PYRROL-2-YL}METHYLENE)-N-METHYL-2-OXOINDOLINE-5-SULFONAMIDE] |
